Source: article PMC11252418, “Specific glycine-dependent enzyme motion determines the potency of conformation selective inhibitors of threonyl-tRNA synthetase” (Communications Biology, 2024)
“And” between values parts separate entries of the source, which are not always exact repeats. Equal entries are not always repeated. Where two headings read alike, the source gives them in different places.

Tests used:
EcThrRS_G463A [1] = biological target: T1, EcThrRS_G463A (Escherichia coli, UniProt P0A8M3, G463A); assay: Thermal shift assay (TSA); type: binding
T1 construct: The E. coli ThrRS (residues 242-642, Supplementary Note 1) wild type; 6xHis (C); made in house; host or cells: E. coli BL21 (DE3)
Protocol: (§1) The EcThrRS_WT and L489M/G463S/G463S_Q484A/G463A/A316N mutant proteins, ObaO_WT and ObaO_S464G mutant proteins were prepared at 2 μM in buffer containing 25 mM Tris-HCl pH 7.5, 200 mM NaCl, and 20 μM OB (GlpBio, US) or BN (GlpBio, US) or ddH2O in equal volumes since the compounds were diluted with ddH2O to 1 mM as stocks. […] SYPRO orange dye (Sigma, USA) was diluted in assay buffer containing 25 mM Tris-HCl pH 7.5 and 200 mM NaCl to a 40× concentration, and was added to the mixture to a final 4× concentration. Aliquots (20 μL) were added to a 96-well PCR plate. After complete mixing, the final solutions were heated from 25 to 95 °C at a rate of 0.015 °C/s, and fluorescence signals were monitored by QuantStudio 3 (Applied Biosystems by Thermo Fisher Scientific, USA). The melting temperature (Tm) was calculated through a previously established method[56],[57].

EcThrRS_L489M [2] = biological target: T2, EcThrRS_L489M (Escherichia coli, UniProt P0A8M3, L489M); assay: Thermal shift assay (TSA); type: binding
T2 construct: The E. coli ThrRS (residues 242-642, Supplementary Note 1) wild type; 6xHis (C); made in house; host or cells: E. coli BL21 (DE3)
Protocol: as §1

EcThrRS_G463S [3] = biological target: T3, EcThrRS_G463S (Escherichia coli, UniProt P0A8M3, G463S); assay: Thermal shift assay (TSA); type: binding
T3 construct: The E. coli ThrRS (residues 242-642, Supplementary Note 1) wild type; 6xHis (C); made in house; host or cells: E. coli BL21 (DE3)
Protocol: as §1

EcThrRS_A316N [4] = biological target: T4, EcThrRS_A316N (Escherichia coli, UniProt P0A8M3, A316N); assay: Thermal shift assay (TSA); type: binding
T4 construct: The E. coli ThrRS (residues 242-642, Supplementary Note 1) wild type; 6xHis (C); made in house; host or cells: E. coli BL21 (DE3)
Protocol: as §1

EcThrRS_G463S_Q484A = biological target: T5, EcThrRS_G463S_Q484A (Escherichia coli, UniProt P0A8M3, G463S/Q484A); assay: Thermal shift assay (TSA); type: binding
T5 construct: The E. coli ThrRS (residues 242-642, Supplementary Note 1) wild type; 6xHis (C); made in house; host or cells: E. coli BL21 (DE3)
Protocol: as §1

EcThrRS_G463A [5] = biological target: T1, EcThrRS_G463A; assay: ATP hydrolysis assay; type: biochemical; conditions: ATP hydrolysis activity
Protocol: (§2) 200 nM EcThrRS wide type and mutants, ObaO and ObaO_S464G mutant were incubated with serially diluted OB (0 to 10 μM for EcThrRS, 0 to 40 μM for ObaO) in a buffer containing 25 mM HEPES pH 7.5, 50 mM NaCl, 40 mM MgCl2, 30 mM KCl, 0.01 mg/mL bovine serum albumin (BSA), and 0.004% Tween-20 at 37 °C for 4 h and then mixed 1:1 with a substrate mixture containing 4 μM ATP, 40 μM L-threonine, 25 mM HEPES pH 7.5, 50 mM NaCl, 40 mM MgCl2, 30 mM KCl, 0.01 mg/mL BSA, and 0.004% Tween-20. The ATP hydrolysis reaction was performed at 37 °C for 4 h.
(§3) After incubation, the detection solution from the Kinase-Glo® luminescent kit (Promega, USA) was added to the reaction system at a 1:1 ratio, and the mixture was gently shaken for 10 min. The chemiluminescence signal was measured using a microplate reader (Tecan, USA). All experiments were performed in four replicates. The data were processed using GraphPad Prism 8 software.

EcThrRS_L489M [6] = biological target: T2, EcThrRS_L489M; assay: ATP hydrolysis assay; type: biochemical; conditions: for ATP hydrolysis activity, inhibitory curve data point: OB, replicates, sheet Fig.2b
Protocol: as §2, §3

EcThrRS_G463S [7] = biological target: T3, EcThrRS_G463S; assay: ATP hydrolysis assay; type: biochemical; conditions: for ATP hydrolysis activity, inhibitory curve data point: OB, replicates, sheet Fig.2b
Protocol: as §2, §3

EcThrRS_A316N [8] = biological target: T4, EcThrRS_A316N; assay: ATP hydrolysis assay; type: biochemical
Protocol: as §2, §3

[9] = 2 μM protein, 20 μM compound, mean n = 4, read-out: ΔTm (increase of Tm)

T2 sequence (P0A8M3 242-642 L489M): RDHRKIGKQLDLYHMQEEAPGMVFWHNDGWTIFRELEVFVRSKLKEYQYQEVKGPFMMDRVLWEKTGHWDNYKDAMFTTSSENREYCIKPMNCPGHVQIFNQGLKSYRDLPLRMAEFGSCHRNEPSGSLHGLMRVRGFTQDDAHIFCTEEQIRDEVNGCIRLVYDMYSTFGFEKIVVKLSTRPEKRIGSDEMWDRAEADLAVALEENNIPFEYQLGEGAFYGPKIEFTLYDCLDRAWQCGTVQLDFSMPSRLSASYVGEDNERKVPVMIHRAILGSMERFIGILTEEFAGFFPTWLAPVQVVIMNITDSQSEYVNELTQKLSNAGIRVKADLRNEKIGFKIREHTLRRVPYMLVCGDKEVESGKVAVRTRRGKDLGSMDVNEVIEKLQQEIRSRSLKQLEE
T5 sequence (P0A8M3 242-642 G463S/Q484A): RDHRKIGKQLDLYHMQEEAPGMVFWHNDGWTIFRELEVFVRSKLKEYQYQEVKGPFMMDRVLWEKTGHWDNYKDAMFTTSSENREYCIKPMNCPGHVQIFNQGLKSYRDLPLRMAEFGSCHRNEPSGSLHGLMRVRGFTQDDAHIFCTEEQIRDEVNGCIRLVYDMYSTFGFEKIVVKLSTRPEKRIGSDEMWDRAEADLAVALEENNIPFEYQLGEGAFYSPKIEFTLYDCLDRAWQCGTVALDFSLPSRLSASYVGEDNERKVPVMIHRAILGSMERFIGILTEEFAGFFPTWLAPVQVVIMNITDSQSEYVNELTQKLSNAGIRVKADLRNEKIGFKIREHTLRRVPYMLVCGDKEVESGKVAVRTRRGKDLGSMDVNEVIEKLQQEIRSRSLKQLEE
T3 sequence (P0A8M3 242-642 G463S): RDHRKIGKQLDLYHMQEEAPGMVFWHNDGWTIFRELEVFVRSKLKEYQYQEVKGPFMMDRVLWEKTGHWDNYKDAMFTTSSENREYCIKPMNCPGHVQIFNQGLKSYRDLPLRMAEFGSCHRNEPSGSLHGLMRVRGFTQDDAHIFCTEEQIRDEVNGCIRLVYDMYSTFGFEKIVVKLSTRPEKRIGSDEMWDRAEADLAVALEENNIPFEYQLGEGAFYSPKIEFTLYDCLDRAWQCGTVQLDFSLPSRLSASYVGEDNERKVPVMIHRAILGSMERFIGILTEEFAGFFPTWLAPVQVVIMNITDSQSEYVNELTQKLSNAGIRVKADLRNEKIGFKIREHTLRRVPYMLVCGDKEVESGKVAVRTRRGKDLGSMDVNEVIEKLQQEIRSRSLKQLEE
T4 sequence (P0A8M3 242-642 A316N): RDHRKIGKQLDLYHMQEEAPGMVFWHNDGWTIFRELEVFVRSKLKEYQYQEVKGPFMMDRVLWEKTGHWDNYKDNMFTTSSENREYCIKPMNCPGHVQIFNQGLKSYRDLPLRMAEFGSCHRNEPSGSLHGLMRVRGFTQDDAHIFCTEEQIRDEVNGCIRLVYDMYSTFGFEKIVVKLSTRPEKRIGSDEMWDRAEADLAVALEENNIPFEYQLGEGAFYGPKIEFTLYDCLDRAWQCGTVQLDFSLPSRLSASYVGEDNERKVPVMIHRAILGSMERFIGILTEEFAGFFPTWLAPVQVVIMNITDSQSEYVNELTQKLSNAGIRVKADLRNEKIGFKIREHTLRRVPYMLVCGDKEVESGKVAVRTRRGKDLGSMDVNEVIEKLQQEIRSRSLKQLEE
T1 sequence (P0A8M3 242-642 G463A): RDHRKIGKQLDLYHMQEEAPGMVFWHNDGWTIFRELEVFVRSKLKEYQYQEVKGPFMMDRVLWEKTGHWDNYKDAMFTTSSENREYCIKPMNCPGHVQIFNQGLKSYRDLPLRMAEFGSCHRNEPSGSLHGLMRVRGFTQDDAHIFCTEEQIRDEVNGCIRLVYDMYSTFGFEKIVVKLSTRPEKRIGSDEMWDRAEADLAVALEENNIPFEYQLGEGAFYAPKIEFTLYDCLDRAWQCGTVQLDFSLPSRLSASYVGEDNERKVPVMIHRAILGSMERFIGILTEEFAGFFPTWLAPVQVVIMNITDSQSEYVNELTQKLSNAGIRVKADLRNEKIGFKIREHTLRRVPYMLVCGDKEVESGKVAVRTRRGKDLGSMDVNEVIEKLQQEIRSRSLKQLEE

With `O=C(N[C@@H]1C(=O)O[C@@H]1Cc1ccc([N+](=O)[O-])cc1)c1cccc(O)c1O` [OB, Obafluorin] the ΔTm at 20 µM (EcThrRS_G463A [1]; [9]) was 19.5 °C, the “ΔTm less than that of EcThrRS_WT” value (EcThrRS_G463A [1]; EcThrRS_G463A vs WT, same compound) was 14.0 °C and the “ΔTm less than that increased by 36j” value (EcThrRS_G463A [1]; difference OB vs 36j on EcThrRS_G463A) was 1.3 °C. It also gave a ΔTm at 20 µM (EcThrRS_G463A [1]; source data sheet Fig.5a, ThrRS_G463A, read-out: ΔTm, single replicates) of 20.4 °C, a ΔTm at 20 µM (EcThrRS_L489M [2]; [9]) of 22.6 °C and a ΔTm at 20 µM (EcThrRS_L489M [2]; source data sheet Fig.2a, ThrRS_L489M, read-out: ΔTm, single replicates) of 23 °C. For the same molecule, the ΔTm at 20 µM (EcThrRS_G463S [3]; [9]) was 13.3 °C, the ΔTm at 20 µM (EcThrRS_G463S [3]; source data sheet Fig.2a, ThrRS_G463S, read-out: ΔTm, single replicates) was 16.1 °C and the ΔTm at 20 µM (EcThrRS_A316N [4]; [9]) was 33.4 °C. For the same molecule, the ΔTm at 20 µM (EcThrRS_A316N [4]; source data sheet Fig.S4a, ThrRS_A316N, read-out: ΔTm, single replicates) was 33.4 °C, the ΔTm at 20 µM (EcThrRS_G463S_Q484A; [9]) was 17.2 °C and the “ΔTm less than the effect of 36j” value (EcThrRS_G463S_Q484A; difference OB vs 36j on EcThrRS_G463S_Q484A) was 10 °C. The ΔTm at 20 µM (EcThrRS_G463S_Q484A; source data sheet Fig.3c, ThrRS_G463S_Q484A, read-out: ΔTm, single replicates) was 17.5 °C, the “inhibitory effect” value (EcThrRS_G463A [5]) was “no inhibitory effect” and the IC50 (EcThrRS_L489M [6]; ATP hydrolysis activity) was 215 nM. The “ATP hydrolysis activity, inhibitory curve data point” value (EcThrRS_L489M [6]; Log10 Conc. 3.097, L489M) was 14.911 and 30.795 and 20.792 and 22.166, the “ATP hydrolysis activity, inhibitory curve data point” value (EcThrRS_L489M [6]; Log10 Conc. 3.398, L489M) was 25.404 and -0.594 and -13.763 and 3.682 and the “ATP hydrolysis activity, inhibitory curve data point” value (EcThrRS_L489M [6]; Log10 Conc. 3.699, L489M) was 26.774 and 18.620 and -26.210 and 6.396. For the same molecule, the “ATP hydrolysis activity, inhibitory curve data point” value (EcThrRS_L489M [6]; Log10 Conc. 4.000, L489M) was 5.096 and 5.493 and 1.083 and 8.709, the inhibition at 5 µM (EcThrRS_G463S [7]; 5 μM OB) was roughly 10% and the “inhibitory activity” value (EcThrRS_G463S [7]; ATP hydrolysis activity) was “poor activity”. The “ATP hydrolysis activity, inhibitory curve data point” value (EcThrRS_G463S [7]; Log10 Conc. 1.279, G463S) was 106.793 and 98.818 and 94.863 and 99.954, the “ATP hydrolysis activity, inhibitory curve data point” value (EcThrRS_G463S [7]; Log10 Conc. 1.597, G463S) was 100.752 and 93.821 and 90.230 and 89.239 and the “ATP hydrolysis activity, inhibitory curve data point” value (EcThrRS_G463S [7]; Log10 Conc. 1.892, G463S) was 119.110 and 112.303 and 110.507 and 107.832. For the same molecule, the “ATP hydrolysis activity, inhibitory curve data point” value (EcThrRS_G463S [7]; Log10 Conc. 2.193, G463S) was 113.765 and 106.055 and 104.056 and 103.914, the “ATP hydrolysis activity, inhibitory curve data point” value (EcThrRS_G463S [7]; Log10 Conc. 2.495, G463S) was 113.955 and 101.766 and 100.028 and 98.945 and the “ATP hydrolysis activity, inhibitory curve data point” value (EcThrRS_G463S [7]; Log10 Conc. 2.796, G463S) was 114.391 and 100.345 and 101.496 and 101.074. For the same molecule, the “ATP hydrolysis activity, inhibitory curve data point” value (EcThrRS_G463S [7]; Log10 Conc. 3.097, G463S) was 109.765 and 91.814 and 95.122 and 94.032, the “ATP hydrolysis activity, inhibitory curve data point” value (EcThrRS_G463S [7]; Log10 Conc. 3.398, G463S) was 99.125 and 85.681 and 84.901 and 83.398 and the “ATP hydrolysis activity, inhibitory curve data point” value (EcThrRS_G463S [7]; Log10 Conc. 3.699, G463S) was 98.676 and 85.750 and 87.909 and 87.887. The “ATP hydrolysis activity, inhibitory curve data point” value (EcThrRS_G463S [7]; Log10 Conc. 4.000, G463S) was 100.800 and 85.432 and 86.068 and 84.275, the IC50 (EcThrRS_A316N [8]; ATP hydrolysis activity) was 848 nM and the “ATP hydrolysis activity, inhibitory curve data point” value (EcThrRS_A316N [8]; OB, Log10 Conc. 0.690, A316N, replicates, sheet Fig.S4b) was 85.962 and 86.560 and 99.695 and 84.767.
